IC50 data for 26 compounds are collected here from patent US8440666B2, “Pyridazinone compounds and P2X7 receptor inhibitors” (Nissan Chemical Industries, Ltd., priority 2007, dated 2013).

For orientation: IC50 means the point on the concentration scale where inhibition reaches its midpoint.

In this experiment the target is T1, Human P2X7 (hP2X7) receptor (Homo sapiens, UniProt Q99572).
T1 construct: myc-His (from the pcDNA3.1/myc-HisA vector); expressed in transfected cells
T1 sequence (Q99572 1-595): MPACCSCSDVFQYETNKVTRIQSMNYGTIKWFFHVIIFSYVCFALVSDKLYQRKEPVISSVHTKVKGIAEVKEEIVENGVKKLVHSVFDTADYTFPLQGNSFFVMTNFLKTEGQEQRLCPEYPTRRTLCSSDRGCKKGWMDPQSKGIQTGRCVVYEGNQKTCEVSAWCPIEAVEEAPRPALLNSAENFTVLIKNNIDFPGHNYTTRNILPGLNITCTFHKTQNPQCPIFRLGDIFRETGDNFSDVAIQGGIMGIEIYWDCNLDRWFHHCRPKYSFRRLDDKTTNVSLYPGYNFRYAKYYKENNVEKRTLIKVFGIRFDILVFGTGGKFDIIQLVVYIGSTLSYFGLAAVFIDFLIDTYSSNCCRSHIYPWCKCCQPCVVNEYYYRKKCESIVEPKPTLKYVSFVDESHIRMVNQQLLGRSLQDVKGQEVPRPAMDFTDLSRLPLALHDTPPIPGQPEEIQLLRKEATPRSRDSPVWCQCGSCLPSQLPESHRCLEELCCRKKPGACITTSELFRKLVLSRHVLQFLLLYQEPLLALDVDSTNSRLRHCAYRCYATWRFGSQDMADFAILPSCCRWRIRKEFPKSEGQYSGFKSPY
The experiment is described as follows: Dye assay: BzATP-induced Yo-Pro-1 uptake in HEK293 cells stably expressing hP2X7. It counts as cell-based. As to conditions: BzATP (0.1 mM)-induced Yo-Pro-1 uptake, compounds 30 min pre-treatment, 90 min incubation. An excerpt:
Human P2X7 (hP2×7) was cloned from a normal human brain total RNA library by reverse transcription (using SuperScript II (Invitrogen)) and PCR (using KOD-plus-(TOYOBO)). PCR primers were designed according to hP2X7 sequence registered in GENBANK with a putative amino acid sequence consisting of 595 amino acid residues. The PCR fragments were inserted into pcDNA3.1/myc-HisA vector (Invitrogen) and sequenced for confirmation.
HEK293 cells were transfected with hP2×7/pcDNA3.1/myc-HisA by lipofection, and 1 day later, the cells were treated with 1 mg/mL G418, and resistant cells were selected by appropriately dilution. The resistant cells were cloned by reseeding at a low density.
P2X7 receptor antagonists were screened by a dye uptake assay using HEK293 cells stably expressing hP2×7. Cells were plated on a type I collagen-coated black/clear bottom 96-well plate at 20000 cells/well and a day later, treated with varying concentrations of various test compounds for 30 minutes, then treated with a dye (Yo-Pro-1) (final concentration 2 μM) and BzATP (final concentration 0.1 mM) and incubated for 90 minutes. Then, the fluorescence (indicating the BzATP-induced Yo-Pro-1 uptake mediated by the P2X7 receptor) was measured with a microplate reader (excitation wavelength: 485 nm, emission wavelength: 535 nm). The % inhibition rates were calculated and plotted against the logarithms of the concentrations to determine IC50.
Take `C[C@@H]1[C@H]2C[C@@H](C[C@H]1Nc1cnn(CC(=O)NCC3CCOCC3)c(=O)c1Cl)C2(C)C` [compound 232]: the IC50 amounted to 37 nM.

In the case of `C[C@@H]1[C@H]2C[C@@H](C[C@H]1Nc1cnn(CC(=O)NCc3ccccc3N(C)C)c(=O)c1Cl)C2(C)C` [compound 247], the IC50 came out at 32 nM.

With `C[C@@H]1[C@H]2C[C@@H](C[C@H]1Nc1cnn(CC(=O)NCc3ccc(NS(C)(=O)=O)cc3)c(=O)c1Cl)C2(C)C` [compound 252], the IC50 came out at 130 nM.

Turning to `C[C@@H]1[C@H]2C[C@@H](C[C@H]1Nc1cnn(CC(=O)NC(CCO)c3ccncc3)c(=O)c1Cl)C2(C)C` (some centres unmarked) [compound 253], the IC50 is 36 nM.

With `C[C@@H]1[C@H]2C[C@@H](C[C@H]1Nc1cnn(CC(=O)NCc3ccnc(C#N)c3)c(=O)c1Cl)C2(C)C` [compound 254], the IC50 came to 27 nM.

For the compound `CC(NC(=O)Cn1ncc(N[C@@H]2C[C@@H]3C[C@H]([C@H]2C)C3(C)C)c(Cl)c1=O)c1ccnc(F)c1` (some centres unmarked) [compound 265], the IC50 came to 3.9 nM.

As to `C[C@@H]1[C@H]2C[C@@H](C[C@H]1Nc1cnn(CC(=O)N[C@H](CO)c3ccccc3)c(=O)c1Cl)C2(C)C` [compound 270], the IC50 worked out at 30 nM.

Consider `C[C@@H]1[C@H]2C[C@@H](C[C@H]1Nc1cnn(CC(=O)N[C@@H](CO)c3ccccc3)c(=O)c1Cl)C2(C)C` [compound 271], for which the concentration for half-maximal inhibition (IC50) amounted to 14 nM.

In the case of `Cc1cncnc1CNC(=O)Cn1ncc(N[C@@H]2C[C@@H]3C[C@H]([C@H]2C)C3(C)C)c(Cl)c1=O` [compound 281], the IC50 worked out at 190 nM.

Consider `CCC(NC(=O)Cn1ncc(N[C@@H]2C[C@@H]3C[C@H]([C@H]2C)C3(C)C)c(Cl)c1=O)c1ccnnc1` (some centres unmarked) [compound 288], for which the IC50 was found to be 3 nM.

Consider `Cc1cc(NC(=O)Cn2ncc(N[C@@H]3C[C@@H]4C[C@H]([C@H]3C)C4(C)C)c(Cl)c2=O)sn1` [compound 292], for which the IC50 is 68 nM.

As for `C[C@@H]1[C@H]2C[C@@H](C[C@H]1Nc1cnn(CC(=O)NCc3ccnnc3)c(=O)c1Cl)C2(C)C` [compound 293], the IC50 was found to be 3.5 nM.

As for `COc1cnccc1CNC(=O)Cn1ncc(N[C@@H]2C[C@@H]3C[C@H]([C@H]2C)C3(C)C)c(Cl)c1=O` [compound 294], the IC50 is 5.4 nM.

Turning to `CCC(NC(=O)Cn1ncc(N[C@@H]2C[C@@H]3C[C@H]([C@H]2C)C3(C)C)cc1=O)c1ccncc1` (some centres unmarked) [compound 295], the IC50 was 230 nM.

For `C[C@@H]1[C@H]2C[C@@H](C[C@H]1Nc1cnn(CCS(=O)(=O)c3ccccc3)c(=O)c1Cl)C2(C)C` [compound 308], the IC50 amounted to 230 nM.

For the compound `CC1(C)[C@@H]2C[C@@H](Nc3cnn(CC(=O)NCc4ccncc4)c(=O)c3Br)[C@@](C)(O)[C@H]1C2` [compound 314], the IC50 turned out to be 34 nM.

For `O=C(Cn1ncc(NC2CCCCCCC2)c(Br)c1=O)NCc1ccncc1` [compound 321], the IC50 came out at 38 nM.

For the compound `O=C(Cn1ncc(NC2CCCCCCCCC2)c(Br)c1=O)NCc1ccncc1` [compound 326], the IC50 is 160 nM.

Turning to `O=C(Cn1ncc(NC2CC3CC4CC(C3)C2C4)c(Br)c1=O)NCc1ccncc1` (centres unmarked) [compound 331], the IC50 was 19 nM.

On to `CCC(NC(=O)Cn1ncc(NC23CC4CC(CC2C4)C3)c(Br)c1=O)c1ccncc1` (centres unmarked) [compound 335], for which the IC50 is 13 nM.

As to `CCC(NC(=O)Cn1ncc(NC23CC4CC(CC2C4)C3)c(Cl)c1=O)c1ccncc1` (centres unmarked) [compound 337], the IC50 is 8.2 nM.

Regarding `Cc1cnccc1CNC(=O)Cn1ncc(NC23CC4CC(CC2C4)C3)c(Cl)c1=O` [compound 338], the IC50 came out at 5.3 nM.

Regarding `O=C(Cn1ncc(NC23CC4CC(CC2C4)C3)c(Cl)c1=O)NCc1ccnc(F)c1` [compound 343], the IC50 was determined as 25 nM.

Turning to `O=C(Cn1ncc(NC23CC4CC(CC2C4)C3)c(Br)c1=O)NCc1ccnnc1` [compound 345], the IC50 was determined as 34 nM.

In the case of `C[C@@H](NC(=O)Cn1ncc(NC23CC4CC(CC2C4)C3)c(Cl)c1=O)c1ccncc1` [compound 347], the IC50 is 5 nM.

Turning to `CC(NC(=O)Cn1ncc(NC23CC4CC(CC2C4)C3)c(Br)c1=O)c1ccnnc1` (centres unmarked) [compound 348], the IC50 was 26 nM.
